Test results taken from US10344060B2 (priority 2013, dated 2019).
Read-outs that look alike come from different tables or passages of the source.

Columns and labels:
[1] = target: hNav1.4 (Homo sapiens, UniProt P35499); test: cell-based; format: cell-based; conditions: for IC50: PatchXpress, read-out: PX hNav1.4 Tonic IC50; for Nav1.4/Nav1.7: ratio of PX tonic IC50 values
[2] = target: hNav1.7 (Homo sapiens, UniProt Q15858); test: cell-based; format: cell-based; conditions: for IC50: PatchXpress, read-out: PX hNav1.7 Tonic IC50
Chain of hNav1.7 (Q15858 whole entry): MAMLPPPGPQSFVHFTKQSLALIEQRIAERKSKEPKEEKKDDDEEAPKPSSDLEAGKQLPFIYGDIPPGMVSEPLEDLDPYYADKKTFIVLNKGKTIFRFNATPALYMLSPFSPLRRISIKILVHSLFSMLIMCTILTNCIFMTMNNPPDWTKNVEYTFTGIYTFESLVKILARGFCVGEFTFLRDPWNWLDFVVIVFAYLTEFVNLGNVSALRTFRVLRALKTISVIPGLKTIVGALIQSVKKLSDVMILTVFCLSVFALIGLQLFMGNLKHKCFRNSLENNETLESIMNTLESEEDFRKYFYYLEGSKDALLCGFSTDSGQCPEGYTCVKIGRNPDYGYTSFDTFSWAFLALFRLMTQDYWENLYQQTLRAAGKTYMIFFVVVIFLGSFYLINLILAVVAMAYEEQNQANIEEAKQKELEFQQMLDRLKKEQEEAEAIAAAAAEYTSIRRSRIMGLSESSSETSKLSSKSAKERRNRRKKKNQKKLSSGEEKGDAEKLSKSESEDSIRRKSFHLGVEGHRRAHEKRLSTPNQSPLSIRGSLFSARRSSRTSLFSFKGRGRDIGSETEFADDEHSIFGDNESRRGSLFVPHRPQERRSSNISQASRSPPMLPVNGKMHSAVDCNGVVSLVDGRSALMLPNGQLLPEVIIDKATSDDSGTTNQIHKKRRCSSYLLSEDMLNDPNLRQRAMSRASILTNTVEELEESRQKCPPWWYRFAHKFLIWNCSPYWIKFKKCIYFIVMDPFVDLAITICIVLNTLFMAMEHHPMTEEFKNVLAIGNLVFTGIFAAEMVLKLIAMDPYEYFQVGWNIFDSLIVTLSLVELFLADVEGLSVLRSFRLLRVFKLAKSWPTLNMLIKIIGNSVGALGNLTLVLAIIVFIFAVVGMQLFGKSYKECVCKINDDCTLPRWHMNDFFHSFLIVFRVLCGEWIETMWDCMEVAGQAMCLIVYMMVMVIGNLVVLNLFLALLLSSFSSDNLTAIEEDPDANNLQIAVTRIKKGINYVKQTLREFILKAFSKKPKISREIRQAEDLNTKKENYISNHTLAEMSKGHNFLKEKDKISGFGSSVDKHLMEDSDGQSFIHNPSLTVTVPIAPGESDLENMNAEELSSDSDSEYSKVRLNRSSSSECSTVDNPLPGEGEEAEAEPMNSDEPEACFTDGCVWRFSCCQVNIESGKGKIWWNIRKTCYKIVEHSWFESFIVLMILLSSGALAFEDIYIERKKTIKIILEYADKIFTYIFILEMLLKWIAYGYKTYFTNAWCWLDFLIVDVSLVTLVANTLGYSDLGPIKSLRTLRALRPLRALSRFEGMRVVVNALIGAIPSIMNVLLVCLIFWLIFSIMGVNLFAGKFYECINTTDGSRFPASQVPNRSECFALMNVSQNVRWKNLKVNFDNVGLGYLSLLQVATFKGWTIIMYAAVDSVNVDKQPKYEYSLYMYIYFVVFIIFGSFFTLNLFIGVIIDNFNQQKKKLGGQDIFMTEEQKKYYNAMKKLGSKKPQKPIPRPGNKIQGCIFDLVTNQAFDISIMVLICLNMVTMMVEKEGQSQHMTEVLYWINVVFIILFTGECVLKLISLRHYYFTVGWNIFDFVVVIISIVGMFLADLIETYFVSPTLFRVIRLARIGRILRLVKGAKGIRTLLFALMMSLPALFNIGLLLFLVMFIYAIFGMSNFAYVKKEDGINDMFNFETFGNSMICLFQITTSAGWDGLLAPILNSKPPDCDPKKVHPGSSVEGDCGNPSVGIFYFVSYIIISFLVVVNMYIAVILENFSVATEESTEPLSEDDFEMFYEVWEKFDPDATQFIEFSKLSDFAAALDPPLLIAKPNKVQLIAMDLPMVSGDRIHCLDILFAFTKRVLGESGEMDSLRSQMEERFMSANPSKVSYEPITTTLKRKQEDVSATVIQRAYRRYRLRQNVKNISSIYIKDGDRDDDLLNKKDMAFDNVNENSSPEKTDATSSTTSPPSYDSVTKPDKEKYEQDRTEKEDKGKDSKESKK

Chain of hNav1.4 (P35499 whole entry): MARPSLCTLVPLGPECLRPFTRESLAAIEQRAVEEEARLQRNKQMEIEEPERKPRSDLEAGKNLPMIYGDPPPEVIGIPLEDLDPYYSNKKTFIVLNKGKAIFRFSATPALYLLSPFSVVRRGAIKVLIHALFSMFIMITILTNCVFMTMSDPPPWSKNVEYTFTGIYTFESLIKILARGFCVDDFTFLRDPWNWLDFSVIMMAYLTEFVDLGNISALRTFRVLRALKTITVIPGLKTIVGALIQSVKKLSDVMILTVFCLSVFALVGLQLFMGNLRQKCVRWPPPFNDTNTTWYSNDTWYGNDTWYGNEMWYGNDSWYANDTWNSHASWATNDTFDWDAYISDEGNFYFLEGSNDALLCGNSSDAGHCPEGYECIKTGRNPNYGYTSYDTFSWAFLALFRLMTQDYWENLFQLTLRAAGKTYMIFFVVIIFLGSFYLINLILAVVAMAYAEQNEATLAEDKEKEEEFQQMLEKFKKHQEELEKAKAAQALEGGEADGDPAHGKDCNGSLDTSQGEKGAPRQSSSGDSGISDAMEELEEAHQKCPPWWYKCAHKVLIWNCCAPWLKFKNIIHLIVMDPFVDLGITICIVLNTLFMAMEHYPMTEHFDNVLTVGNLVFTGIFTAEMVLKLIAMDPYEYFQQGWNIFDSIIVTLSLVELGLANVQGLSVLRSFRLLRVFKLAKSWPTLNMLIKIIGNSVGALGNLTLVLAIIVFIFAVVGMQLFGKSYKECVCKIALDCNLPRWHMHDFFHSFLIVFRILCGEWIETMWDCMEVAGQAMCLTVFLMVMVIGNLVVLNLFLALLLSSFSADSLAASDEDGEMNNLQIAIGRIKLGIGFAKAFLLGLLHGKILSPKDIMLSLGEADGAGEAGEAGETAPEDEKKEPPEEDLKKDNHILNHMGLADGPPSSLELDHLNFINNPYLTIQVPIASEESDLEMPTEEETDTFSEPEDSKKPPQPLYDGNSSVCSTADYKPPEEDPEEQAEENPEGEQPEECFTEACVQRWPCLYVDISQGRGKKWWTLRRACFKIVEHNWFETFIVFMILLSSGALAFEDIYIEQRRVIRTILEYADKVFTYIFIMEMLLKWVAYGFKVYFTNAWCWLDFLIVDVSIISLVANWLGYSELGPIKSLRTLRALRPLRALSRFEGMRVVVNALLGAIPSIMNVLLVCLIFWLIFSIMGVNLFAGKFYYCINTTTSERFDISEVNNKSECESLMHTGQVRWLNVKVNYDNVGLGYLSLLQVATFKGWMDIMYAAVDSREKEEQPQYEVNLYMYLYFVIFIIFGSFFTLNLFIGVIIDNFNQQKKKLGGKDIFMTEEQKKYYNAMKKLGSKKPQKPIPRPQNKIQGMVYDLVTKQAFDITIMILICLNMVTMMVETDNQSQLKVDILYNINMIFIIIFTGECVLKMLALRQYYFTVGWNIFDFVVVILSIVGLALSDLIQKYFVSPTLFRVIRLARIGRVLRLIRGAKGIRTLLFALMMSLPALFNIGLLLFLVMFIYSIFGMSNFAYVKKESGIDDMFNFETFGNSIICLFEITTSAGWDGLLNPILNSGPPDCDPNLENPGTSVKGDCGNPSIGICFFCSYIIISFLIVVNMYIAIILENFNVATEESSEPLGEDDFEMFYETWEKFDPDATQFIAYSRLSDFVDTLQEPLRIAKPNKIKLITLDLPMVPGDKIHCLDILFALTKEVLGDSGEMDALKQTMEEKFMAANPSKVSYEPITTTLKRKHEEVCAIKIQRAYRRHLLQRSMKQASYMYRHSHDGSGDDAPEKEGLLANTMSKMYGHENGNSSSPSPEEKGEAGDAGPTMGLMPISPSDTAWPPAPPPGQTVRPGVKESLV

SMILES: CC[C@H](C)[C@H](NC(=O)[C@@H](NC(=O)[C@H](CCCCN)NC(=O)[C@H](CCCNC(=N)N)NC(=O)[C@@H]1CSSC[C@@H]2NC(=O)[C@H](C)NC(=O)[C@H](CCCNC(=N)N)NC(=O)[C@H](CCC(=O)O)NC(=O)[C@H](CO)NC(=O)[C@H](CC(=O)O)NC(=O)[C@@H]3CSSC[C@H](NC(=O)[C@H](CCCNC(=N)N)NC(=O)[C@H](CC(C)C)NC(=O)CNC(=O)[C@H](CCC(=O)O)NC(=O)[C@H](CSSC[C@H](NC(=O)[C@@H](N)Cc4ccc(O)cc4)C(=O)N[C@@H](CCC(N)=O)C(=O)N[C@@H](CCCCN)C(=O)N[C@@H](Cc4c[nH]c5ccccc45)C(=O)N[C@@H](CCSC)C(=O)N[C@@H](Cc4c[nH]c5ccccc45)C(=O)N[C@@H]([C@@H](C)O)C(=O)N3)NC2=O)C(=O)N[C@@H](CCCCN)C(=O)N[C@@H](CC(C)C)C(=O)N[C@@H](Cc2c[nH]c3ccccc23)C(=O)N1)[C@@H](C)CC)C(N)=O [compound 58]
- IC50 ([1]; tonic, Table 11): 43.2 nM
- IC50 ([2]; tonic, Table 11): 0.904 nM
- Nav1.4/Nav1.7 ([2]; ratio of PX tonic IC50 values, Table 11): 48

SMILES: C#CC[C@@H]1NC(=O)[C@@H]2CSSC[C@H](NC(=O)[C@H](Cc3ccc(O)cc3)NC(=O)[C@@H](N)CC#N)C(=O)N[C@@H](CCC(N)=O)C(=O)N[C@@H](CCCCN)C(=O)N[C@@H](Cc3c[nH]c4ccccc34)C(=O)N[C@@H](CCCC)C(=O)N[C@@H](Cc3c[nH]c4ccccc34)C(=O)N[C@@H]([C@@H](C)O)C(=O)N[C@H]3CSSC[C@H](NC(=O)[C@H](CCCNC(=N)N)NC(=O)[C@H](CC(C)C)NC(=O)CNC1=O)C(=O)N[C@@H](CCCCN)C(=O)N[C@@H](CC(C)C)C(=O)N[C@@H](Cc1c[nH]c4ccc(C)cc14)C(=O)N[C@H](C(=O)N[C@@H](CCCNC(=N)N)C(=O)N[C@@H](CCCCN)C(=O)N[C@@H](CCC(=O)O)C(=O)N[C@H](C(N)=O)[C@@H](C)CC)CSSC[C@H](NC(=O)[C@H](C)NC(=O)[C@H](CCCNC(=N)N)NC(=O)[C@H](CCCCN)NC(=O)[C@H](CO)NC(=O)[C@H](CC(=O)O)NC3=O)C(=O)N2 [compound 1662]
- IC50 ([1]; Table 12, tonic block): 89.8 nM
- Nav1.4/Nav1.7 ([1]; Table 12): 172
- IC50 ([2]; Table 12, tonic block): 0.52 nM

SMILES: C#CC[C@H](N)C(=O)N[C@@H](Cc1ccc(O)cc1)C(=O)N[C@H]1CSSC[C@@H]2NC(=O)[C@@H]3CSSC[C@@H](C(=O)N[C@@H](CCCNC(=N)N)C(=O)N[C@@H](CCCCN)C(=O)N[C@@H](CCC(=O)O)C(=O)N[C@H](C(N)=O)[C@@H](C)CC)NC(=O)[C@H](Cc4c[nH]c5ccccc45)NC(=O)[C@H](CC(C)C)NC(=O)[C@H](CCCCN)NC(=O)[C@H](CSSC[C@H](NC(=O)[C@H]([C@@H](C)O)NC(=O)[C@H](Cc4c[nH]c5ccccc45)NC(=O)[C@H](Cc4ccccc4)NC(=O)[C@H](Cc4c[nH]c5ccccc45)NC(=O)[C@H](CCCCN)NC(=O)[C@H](CCC(N)=O)NC1=O)C(=O)N[C@@H](CC(=O)O)C(=O)N[C@@H](CO)C(=O)N[C@@H](CCCCN)C(=O)N[C@@H](CCCNC(=N)N)C(=O)N[C@@H](C)C(=O)N3)NC(=O)[C@H](CCCNC(=N)N)NC(=O)[C@H](CC(C)C)NC(=O)CNC(=O)[C@H](CCC(=O)O)NC2=O [compound 863]
- IC50 ([1]; Table 12, tonic block): 61.6 nM
- Nav1.4/Nav1.7 ([1]; Table 12): 45
- IC50 ([2]; Table 12, tonic block): 1.36 nM

SMILES: C#CC[C@@H]1NC(=O)[C@@H]2CSSC[C@H](NC(=O)[C@H](Cc3ccc(O)cc3)NC(=O)[C@@H](N)CC#N)C(=O)N[C@@H](CCC(N)=O)C(=O)N[C@@H](CCCCN)C(=O)N[C@@H](Cc3c[nH]c4ccccc34)C(=O)N[C@@H](CCCC)C(=O)N[C@@H](Cc3c[nH]c4ccccc34)C(=O)N[C@@H]([C@@H](C)O)C(=O)N[C@H]3CSSC[C@H](NC(=O)[C@H](CCCNC(=N)N)NC(=O)[C@H](CC(C)C)NC(=O)CNC1=O)C(=O)N[C@@H](CCCCN)C(=O)N[C@@H](CC(C)C)C(=O)N[C@@H](Cc1c[nH]c4ccc(Br)cc14)C(=O)N[C@H](C(=O)N[C@@H](CCCNC(=N)N)C(=O)N[C@@H](CCCCN)C(=O)N[C@H](C(=O)N[C@H](C(N)=O)[C@@H](C)CC)[C@@H](C)CC)CSSC[C@H](NC(=O)[C@H](C)NC(=O)[C@H](CCCNC(=N)N)NC(=O)[C@H](CCCCN)NC(=O)[C@H](CCC(=O)O)NC(=O)[C@H](CC(=O)O)NC3=O)C(=O)N2 [compound 1244]
- IC50 ([1]; Table 12, tonic block): 7.4 nM
- Nav1.4/Nav1.7 ([1]; Table 12): 12
- IC50 ([2]; Table 12, tonic block): 0.64 nM

SMILES: CC[C@H](C)[C@H](NC(=O)[C@@H](NC(=O)[C@H](CCCCN)NC(=O)[C@H](CCCNC(=N)N)NC(=O)[C@@H]1CSSC[C@@H]2NC(=O)[C@H](C)NC(=O)[C@H](CCCNC(=N)N)NC(=O)[C@H](CCCCN)NC(=O)[C@H](CO)NC(=O)[C@H](CC(=O)O)NC(=O)[C@@H]3CSSC[C@H](NC(=O)[C@H](CCCNC(=N)N)NC(=O)[C@H](CC(C)C)NC(=O)CNC(=O)[C@H](CCC(=O)O)NC(=O)[C@H](CSSC[C@H](NC(=O)[C@@H](N)Cc4ccc(O)cc4)C(=O)N[C@@H](CCC(N)=O)C(=O)N[C@@H](CCCCN)C(=O)N[C@@H](CCC(=O)O)C(=O)N[C@@H](CCSC)C(=O)N[C@@H](Cc4c[nH]c5ccccc45)C(=O)N[C@@H]([C@@H](C)O)C(=O)N3)NC2=O)C(=O)N[C@@H](CCCCN)C(=O)N[C@@H](CC(C)C)C(=O)N[C@@H](Cc2c[nH]c3ccccc23)C(=O)N1)[C@@H](C)CC)C(N)=O [compound 52]
- IC50 ([1]; tonic, Table 11): 3.1 nM
- IC50 ([2]; tonic, Table 11): > 1000 nM

SMILES: C#CC[C@@H]1NC(=O)[C@H](CC(=O)O)NC(=O)[C@@H]2CSSC[C@@H]3NC(=O)[C@H](CCCNC(=N)N)NC(=O)[C@H](CC(C)C)NC(=O)CNC(=O)[C@H](CCC(=O)O)NC(=O)[C@H](CSSC[C@H](NC(=O)[C@H](Cc4ccc(O)cc4)NC(=O)[C@@H](N)CC#N)C(=O)N[C@@H](CCC(N)=O)C(=O)N[C@@H](CCCCN)C(=O)N[C@@H](Cc4c[nH]c5ccccc45)C(=O)N[C@@H](CCCC)C(=O)N[C@@H](Cc4c[nH]c5ccccc45)C(=O)N[C@@H]([C@@H](C)O)C(=O)N2)NC(=O)[C@H](CSSC[C@@H](C(=O)N[C@@H](CCCNC(=N)N)C(=O)N[C@@H](CCCCN)C(=O)N[C@@H](CCC(=O)O)C(=O)N[C@H](C(N)=O)[C@@H](C)CC)NC(=O)[C@H](Cc2c[nH]c4ccccc24)NC(=O)[C@H](CC(C)C)NC(=O)[C@H](CCCCN)NC3=O)NC(=O)[C@H](C)NC(=O)[C@H](CCCNC(=N)N)NC(=O)[C@H](CCCCN)NC1=O [compound 520]
- IC50 ([1]; Table 12, tonic block): 517 nM
- Nav1.4/Nav1.7 ([1]; Table 12): 2673
- IC50 ([2]; Table 12, tonic block): 0.193 nM

SMILES: CCCC[C@@H]1NC(=O)[C@H](Cc2c[nH]c3ccccc23)NC(=O)[C@H](CCCCN)NC(=O)[C@H](CCC(N)=O)NC(=O)[C@@H](NC(=O)[C@H](Cc2ccc(O)cc2)NC(=O)[C@@H](N)Cc2cn(CCOCCOCCOCCOCCOCCOCCOCCOCCOCCOCCOCCOCCOCCOCCOCCOCCOCCOCCOCCOCCOCCOCCOCCNC(=O)c3cc(CN)cc(C(=O)NCCOCCOCCOCCOCCOCCOCCOCCOCCOCCOCCOCCOCCOCCOCCOCCOCCOCCOCCOCCOCCOCCOCCOCCn4cc(C[C@H](N)C(=O)N[C@@H](Cc5ccc(O)cc5)C(=O)N[C@H]5CSSC[C@@H]6NC(=O)[C@@H]7CSSC[C@@H](C(=O)N[C@@H](CCCNC(=N)N)C(=O)N[C@@H](CCCCN)C(=O)N[C@@H](CCC(=O)O)C(=O)N[C@H](C(N)=O)[C@@H](C)CC)NC(=O)[C@H](Cc8c[nH]c9ccccc89)NC(=O)[C@H](CC(C)C)NC(=O)[C@H](CCCCN)NC(=O)[C@H](CSSC[C@H](NC(=O)[C@H]([C@@H](C)O)NC(=O)[C@H](Cc8c[nH]c9ccccc89)NC(=O)[C@H](CCCC)NC(=O)[C@H](Cc8c[nH]c9ccccc89)NC(=O)[C@H](CCCCN)NC(=O)[C@H](CCC(N)=O)NC5=O)C(=O)N[C@@H](CC(=O)O)C(=O)N[C@@H](CO)C(=O)N[C@@H](CCCCN)C(=O)N[C@@H](CCCNC(=N)N)C(=O)N[C@@H](C)C(=O)N7)NC(=O)[C@H](CCCNC(=N)N)NC(=O)[C@H](CC(C)C)NC(=O)CNC(=O)[C@H](CCC(=O)O)NC6=O)nn4)c3)nn2)CSSC[C@@H]2NC(=O)[C@@H]3CSSC[C@@H](C(=O)N[C@@H](CCCNC(=N)N)C(=O)N[C@@H](CCCCN)C(=O)N[C@@H](CCC(=O)O)C(=O)N[C@H](C(N)=O)[C@@H](C)CC)NC(=O)[C@H](Cc4c[nH]c5ccccc45)NC(=O)[C@H](CC(C)C)NC(=O)[C@H](CCCCN)NC(=O)[C@H](CSSC[C@H](NC(=O)[C@H]([C@@H](C)O)NC(=O)[C@H](Cc4c[nH]c5ccccc45)NC1=O)C(=O)N[C@@H](CC(=O)O)C(=O)N[C@@H](CO)C(=O)N[C@@H](CCCCN)C(=O)N[C@@H](CCCNC(=N)N)C(=O)N[C@@H](C)C(=O)N3)NC(=O)[C@H](CCCNC(=N)N)NC(=O)[C@H](CC(C)C)NC(=O)CNC(=O)[C@H](CCC(=O)O)NC2=O [Homodimeric Conjugate No. 7]
- Nav1.4/Nav1.7 ([1]; Table 13): 94

SMILES: C#CC[C@H](N)C(=O)NCCCC[C@@H]1NC(=O)[C@H](CCCNC(=N)N)NC(=O)[C@H](CCCCN)NC(=O)[C@H](CO)NC(=O)[C@H](CC(=O)O)NC(=O)[C@@H]2CSSC[C@@H]3NC(=O)[C@H](CCCNC(=N)N)NC(=O)[C@H](CC(C)C)NC(=O)CNC(=O)[C@H](CCC(=O)O)NC(=O)[C@H](CSSC[C@H](NC(=O)[C@H](Cc4ccc(O)cc4)NC(=O)[C@@H](N)CCC)C(=O)N[C@@H](CCC(N)=O)C(=O)N[C@@H](CCCCN)C(=O)N[C@@H](Cc4c[nH]c5ccccc45)C(=O)N[C@@H](CC(C)C)C(=O)N[C@@H](Cc4c[nH]c5ccccc45)C(=O)N[C@@H]([C@@H](C)O)C(=O)N2)NC(=O)[C@H](CSSC[C@@H](C(=O)N[C@@H](CCCNC(=N)N)C(=O)N[C@@H](CCCCN)C(=O)N[C@@H](CCC(=O)O)C(=O)N[C@H](C(N)=O)[C@@H](C)CC)NC(=O)[C@H](Cc2c[nH]c4ccccc24)NC(=O)[C@H](CC(C)C)NC(=O)[C@H](CCCCN)NC3=O)NC1=O [compound 439]
- IC50 ([1]; Table 12, tonic block): 300 nM
